SMILES strings stand for the structures. In brackets after ≈: the same amount, converted by molar mass. Like-named read-outs stand apart in the source and are kept apart here.

The subject of test [1] is S. pyogenes ATCC 51339. Description: MIC microdilution assay. Conditions: broth +5% defibrinated sheep blood, 35±2° C. 18 to 20 hours, two values given. Type of test: cell-based, Steptococcus pyogenes. The method, then:
(§1) Strain numbers starting with “ATCC” were acquired from the American Type Culture Collection (Manassas, VA), while strain numbers starting with “CDC” were acquired from the Centers for Disease Control and Prevention (Atlanta, GA). All strains were maintained as −80° C. frozen glycerol stocks. S. aureus and P. aeruginosa were grown overnight on Tryptic Soy Agar (TSA) plates at 35±2° C., ambient atmosphere, while S. pyogenes was grown overnight on TSA+5% defibrinated sheep blood at 35±2° C., 5% CO2. All fungal species (i.e. C. albicans, C. auris and C. herbarum) were grown on Sabouraud Dextrose Agar (SDA) plates. C. herbarum was grown at 25±2° C. for 5 to 7 days, while all other fungal strains were grown at 35±2° C. overnight.
(§2) Test articles Compound 2 (batch #2G13A0.368) and Compound 23 (batch #2G17A0.372) were received and stored at 4° C. The antibiotic Tobramycin and antifungal Amphotericin B were used as quality control (QC) compounds for the MIC assay. Stock solutions of 3.2 mg/mL Tobramycin (Sigma-Aldrich, cat #T1783-500MG) and 3.2 mg/mL Amphotericin B (CP Lab Chemicals, cat #TOK-A007-1G) were prepared in sterile ultrapure water.
(§3) For bacteria strains, a few colonies of each strain were collected with a sterile swab and used to make a McFarland 0.5 standard solution (approximately 1×10^8 CFU/mL) in sterile PBS. The McFarland was then diluted 1:180 in Cation Adjusted Muller-Hinton Broth (CAMHB) for S. aureus and P. aeruginosa, and in […]+5% defibrinated sheep blood for S. pyogenes. 90 μL of this inoculum was combined with 10 μL of the 10× test article in a 96-well plate for a final concentration of 1×.
All bacterial-strain MIC 96-well plates were incubated at 35±2° C. for 18 to 20 hours, while all Candida MIC 96-well plates were incubated at 35±2° C. for 24 to 48 hours. C. herbarum MIC 96-well plates were incubated at 25±2° C. for 3 to 5 days, until growth was visible in the growth control wells. After incubation, the 96-well plates were examined visually and on a spectrophotometer at absorbance OD650. […]

Test [2] deals with Candida auris CDC 0381. Description: MIC microdilution assay. The format is cell-based. The note with it: Candidozyma auris, CDC0381; C. auris CDC 0381; RPMI media; 35±2° C. 24 to 48 hours; two values given; read-out: MIC. The method, then:
as §1, §2, §3
For the yeasts C. albicans and C. auris, a McFarland 0.5 standard solution in sterile PBS was similarly prepared (approximately 1×10^6 CFU/mL) and was subsequently diluted 1:180 in RPMI 1640 media buffered with 0.165 M MOPS at pH 7.0 (herein referred to as “RPMI media”). 90 μL of the Candida inoculum was combined with 10 μL of the 10× test article in a 96-well plate for a final concentration of 1×.
All bacterial-strain MIC 96-well plates were incubated at 35±2° C. for 18 to 20 hours, while all Candida MIC 96-well plates were incubated at 35±2° C. for 24 to 48 hours. C. herbarum MIC 96-well plates were incubated at 25±2° C. for 3 to 5 days, until growth was visible in the growth control wells. After incubation, the 96-well plates were examined visually and on a spectrophotometer at absorbance OD650. MIC is defined as the lowest concentration of a compound in which no visible growth is observed.

In test [3] the test system is Cladosporium herbarum ATCC MYA-4682. Description: MIC microdilution assay. The format is cell-based. The note with it: Cladosporium herbarum; C. herbarum ATCC MYA-4682; RPMI media; 25±2° C. 3 to 5 days; two values given; read-out: MIC. The method, then:
as §1
Test articles Compound 2 (batch #2G13A0.368) and Compound 23 (batch #2G17A0.372) were received and stored at 4° C. The antibiotic Tobramycin and antifungal Amphotericin B were used as quality control (QC) compounds for the MIC assay. […]
All bacterial-strain MIC 96-well plates were incubated at 35±2° C. for 18 to 20 hours, while all Candida MIC 96-well plates were incubated at 35±2° C. for 24 to 48 hours. […] After incubation, the 96-well plates were examined visually and on a spectrophotometer at absorbance OD650. […]

Test [4] deals with Acinetobacter baumannii Eurofins 1674627. Description: MIC microdilution assay (Example 32). Type of test: cell-based. The note with it: Acinetobacter baumannii; A. baumannii Eurofins 1674627; 35±2° C. 18 to 20 hours; two values given; read-out: MIC.
For test [5], the system named is Pseudomonas aeruginosa ATCC 27853. Description: MIC microdilution assay (Example 32). The note with it: Pseudomonas aeruginosa, ATCC27853; P. aeruginosa ATCC 27853 (quality control); CAMHB; 35±2° C. 18 to 20 hours; two values given; read-out: MIC. The format is cell-based.
Test [6] deals with Pseudomonas aeruginosa Eurofins 1674623. Description: MIC microdilution assay (Example 32). Type of test: cell-based. The note with it: Pseudomonas aeruginosa; P. aeruginosa Eurofins 1674623; CAMHB; 35±2° C. 18 to 20 hours; two values given; read-out: MIC.

Turning to `NC[C@H]1O[C@H](O[C@H]2[C@H](O)[C@@H](O[C@H]3O[C@H](CO)[C@@H](O)[C@H](N)[C@H]3O)[C@H](N)C[C@@H]2N)[C@H](N)C[C@@H]1O` [Tobramycin], the minimum inhibitory concentration (MIC) in test [1] (S. pyogenes ATCC 51339) is 32 µg/mL (≈ 68.4 µM); in test [1] (Streptococcus pyogenes, ATCC51339, S. pyogenes ATCC 51339, read-out: MIC), 16 µg/mL (≈ 34.2 µM); in test [2], more than 32 µg/mL; in test [3] it was more than 32 µg/mL; in test [4] it was 1 µg/mL (≈ 2.14 µM); in test [5], 0.25 µg/mL (≈ 0.535 µM). In addition, in test [6], the minimum inhibitory concentration (MIC) was more than 32 µg/mL.

Values taken from US12264170B2, “Antimicrobial organosilanes” (TOPIKOS SCIENTIFIC, INC., priority 2019, dated 2025).
